Data as given in PubChem BioAssay (NCI).
“And” between values parts separate entries of the source, which are not always exact repeats. Equal entries are not always repeated.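 48-hour exposure; five concentrations; linearly interpolated endpoints. The concentration for 50% growth inhibition is given as GI50. TGI: concentration producing complete growth inhibition.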

Experiments:
Assay in all cases: growth of human tumour cells (NCI), 48 h
EKVX NSCLC = tested on: EKVX NSCLC
SR leukemia = tested on: SR leukemia
SF-295 CNS = tested on: SF-295 CNS
SW-620 colon = tested on: SW-620 colon
SNB-75 CNS = tested on: SNB-75 CNS
HL-60(TB) leukemia = tested on: HL-60(TB) leukemia
NCI-H226 lung = tested on: NCI-H226 lung
HCT-116 colon = tested on: HCT-116 colon
SK-OV-3 ovarian = tested on: SK-OV-3 ovarian
MDA-MB-231 breast = tested on: MDA-MB-231 breast

Row | Compound | GI50 (EKVX NSCLC) | TGI (EKVX NSCLC) | GI50 (SR leukemia) [µM] | TGI (SR leukemia) [µM] | GI50 (SF-295 CNS) | TGI (SF-295 CNS) | GI50 (SW-620 colon) | TGI (SW-620 colon) | GI50 (SNB-75 CNS) | TGI (SNB-75 CNS) | GI50 (HL-60(TB) leukemia) | TGI (HL-60(TB) leukemia) | GI50 (NCI-H226 lung) | TGI (NCI-H226 lung) | GI50 (HCT-116 colon) | TGI (HCT-116 colon) | GI50 (SK-OV-3 ovarian) | TGI (SK-OV-3 ovarian) | GI50 (MDA-MB-231 breast) | TGI (MDA-MB-231 breast)
1 | CCC(C(=O)[O-])C(=O)[O-].CCC(C(=O)[O-])C(=O)[O-].N.N.NCCCCCCN.[Pt+4].[Pt+4] | 20.7 µM | 33.3 µM | 6.11 | 35.4 | 23.2 µM | 50 µM | 0.9 µM | 1.71 µM | 9.85 µM | 20.4 µM | 1.68 µM | 4.63 µM | 10 µM | 20.2 µM | 5.59 µM | 14 µM | 10.3 µM | 18.3 µM | – | –
2 | Cc1c(NC(=O)OC[C@@H]2COCCN2)cn2ncnc(Nc3ccc4c(cnn4Cc4cccc(F)c4)c3)c12 | 0.716 µM and 0.257 µM | > 10 µM and 14.2 µM | – | – | 9.08 µM and 5.67 µM | > 10 µM and 20.6 µM | > 10 µM and 10.5 µM | > 10 µM and 24.6 µM | 8 µM and 7.09 µM | > 10 µM and 30.9 µM | 7.76 µM and 17.5 µM | > 10 µM and 37 µM | > 10 µM and 11.3 µM | > 10 µM and 35.6 µM | 7.82 µM and 5.22 µM | > 10 µM and 18.7 µM | 1.09 µM and 0.711 µM | > 10 µM and 16.6 µM | 4.89 µM and 2.99 µM | > 10 µM and 13.4 µM
3 | COc1ccc(CNc2nc3c(NC(C)=O)cc(C(F)(F)F)cc3nc2-c2ccccc2)cc1OC | – | > 100 µM | – | – | – | > 100 µM | – | > 100 µM | – | 4.48 µM | – | > 100 µM | – | – | – | > 100 µM | – | > 100 µM | – | –
4 | CC(=O)OC1CC2C(C)(C)C(=O)C=CC2(C)C2CCC3(C)C(c4ccoc4)OC(=O)C4OC43C12C (configuration not stated) | – | > 100 µM | – | – | – | > 100 µM | – | > 100 µM | – | > 100 µM | – | > 100 µM | – | > 100 µM | – | 11.3 µM | – | 48.7 µM | – | 14.1 µM
5 | N#Cc1ccc(C(c2ccc(C#N)cc2)n2cncn2)cc1 | > 5000 µM | > 5000 µM | > 5000 | > 5000 | 182 µM | > 5000 µM | > 5000 µM | > 5000 µM | > 5000 µM | > 5000 µM | > 5000 µM | > 5000 µM | > 5000 µM | > 5000 µM | – | – | > 5000 µM | > 5000 µM | – | –
6 | O=C1C(Cl)=C(Nc2cccc(O)c2)C(=O)N1c1ccccc1Cl | 76.1 µM | > 100 µM | 7 | 40.2 | 40 µM | > 100 µM | 52.3 µM | > 100 µM | – | – | – | – | 17 µM | 49.6 µM | 20 µM | 70.9 µM | 49.9 µM | > 100 µM | 5.68 µM | 42.4 µM
7 | COC(=O)C(Cc1nc2ccc(Cl)cc2[nH]c1=O)/C(=N/NC(N)=O)C(=O)Nc1ccc(Cl)cc1 (configuration not stated) | – | > 100 µM | – | > 100 | – | > 100 µM | – | > 100 µM | – | > 100 µM | – | > 100 µM | – | > 100 µM | – | > 100 µM | – | > 100 µM | – | –
8 | O=C1C2c3[nH]c4ccccc4c3[C@@H]3CCCCC3C2C(=O)N1c1ccccc1 (some centres not stated) | – | 37.5 µM | – | 77.8 | – | 43.2 µM | – | 38.8 µM | – | 71.5 µM | – | 47.5 µM | – | 42.2 µM | – | – | – | 72.5 µM | – | –
9 | Cc1ccc2[nH]c3c(ncc4[nH]c5ccccc5c43)c2c1 | – | 29.3 µM | – | – | – | 30.9 µM | – | 26.7 µM | – | 28.5 µM | – | 36.3 µM | – | 30.4 µM | – | 30.8 µM | – | 25.2 µM | – | –
10 | OC(c1ccccn1)C1CNc2ccccc21 (configuration not stated) | – | > 100 µM | – | – | – | > 100 µM | – | > 100 µM | – | > 100 µM | – | > 100 µM | – | > 100 µM | – | > 100 µM | – | > 100 µM | – | –
11 | O=C(CCCCCCSc1nc(-c2ccc(Cl)cc2)cc(-c2ccc(Cl)cc2)n1)NO | 2.6 µM | 39.6 µM | – | – | 2.34 µM | 9.84 µM | 1.71 µM | 24.2 µM | 1.32 µM | 15.6 µM | 1.97 µM | > 50 µM | 1.71 µM | 17.5 µM | 1.45 µM | 6.05 µM | 1.32 µM | 4.19 µM | 2.15 µM | 13.3 µM
12 | N#CC1(C=O)c2ccccc2C=CN1C(=O)c1ccccc1 (configuration not stated) | – | > 100 µM | – | 66.5 | – | – | – | 19.3 µM | – | 66.9 µM | – | 45.9 µM | – | > 100 µM | – | > 100 µM | – | – | – | –
13 | COC12CC(=O)C(C(C)=O)=C(O)C1(C)c1c(OC(C)=O)c(C)c(O)c(C(C)=O)c1O2 (configuration not stated) | – | 93.6 µM | – | > 100 | – | > 100 µM | – | > 100 µM | – | 80.6 µM | – | 42.5 µM | – | 65.7 µM | – | > 100 µM | – | – | – | –
14 | CCC[CH2][Sn]([CH2]CCC)([O]C(=O)C1CCC(=O)N1)[O]C(=O)C1CCC(=O)N1 (configuration not stated) | 0.264 µM | 0.918 µM | 0.18 | 0.526 | 0.274 µM | 1.05 µM | 0.134 µM | 0.307 µM | 0.221 µM | 0.752 µM | 0.157 µM | 0.445 µM | 1.43 µM | 2.81 µM | 0.786 µM | 2.04 µM | 0.801 µM | 2.02 µM | – | –
15 | CCCCC#CC#Cc1cccc(=O)o1 | 49 µM | > 100 µM | – | – | 18.8 µM | 40 µM | 18.7 µM | 53.1 µM | – | – | 15.6 µM | 43.1 µM | 16.3 µM | 38.3 µM | 14.8 µM | 28.3 µM | 27.3 µM | 46.7 µM | 19.5 µM | 43.2 µM
16 | c1ccc(COCC2OC3c4ccccc4COC3C2OCc2ccccc2)cc1 (configuration not stated) | – | > 100 µM | – | > 100 | – | > 100 µM | – | > 100 µM | – | > 100 µM | – | – | – | > 100 µM | – | > 100 µM | – | > 100 µM | – | –
17 | Cn1c2c(c3ccccc31)CCN(CCCCN1CCN(c3cccc(Cl)c3)CC1)C2=O | – | 69.2 µM | – | – | – | 34 µM | – | 26.4 µM | – | 9.61 µM | – | 18.9 µM | – | – | – | 19.4 µM | – | 37.8 µM | – | –
18 | O=C(c1ccccc1)c1nc2ccc(C(F)(F)F)cc2[n+]([O-])c1C(F)(F)F | 21.1 µM | > 100 µM | – | – | 19.7 µM | > 100 µM | 47.5 µM | > 100 µM | 37.1 µM | > 100 µM | 19 µM | 52.5 µM | 59 µM | > 100 µM | 31.3 µM | > 100 µM | 27.4 µM | > 100 µM | 45.1 µM | > 100 µM
